The subject of this test is CD2F1 mice, L1210 leukemia ip, survival T/C. As to the kind of experiment: NCI In Vivo Anticancer Drug Screen. Data for tumor model L1210 Leukemia (intraperitoneal) in CD2F1 (CDF1) mice. The following applies: higher = longer survival. The method in brief: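 Vehicle-treated tumor-bearing mice served as controls (C) for compound-treated mice (T). Reported figure is T divided by C.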

[1] abbreviates: endpoint: mean survival time, dose: 100.0 mg/kg/injection, schedule: Q04DX003 (ip), vehicle: saline.
The mark [2] stands for this setting: endpoint: mean survival time, dose: 200.0 mg/kg/injection, schedule: Q04DX003 (ip), vehicle: saline.
[3] abbreviates: endpoint: mean survival time, dose: 100.0 mg/kg/injection, schedule: Q01DX001 (ip), vehicle: saline with Tween-80.
Where [4] appears, read: endpoint: mean survival time, dose: 200.0 mg/kg/injection, schedule: Q01DX001 (ip), vehicle: saline with Tween-80.
Where [5] appears, read: endpoint: mean survival time, dose: 400.0 mg/kg/injection, schedule: Q01DX001 (ip), vehicle: saline with Tween-80.
Setting [6] is: endpoint: mean survival time, dose: 100.0 mg/kg/injection, schedule: Q04DX003 (ip), vehicle: saline with Tween-80.
Where [7] appears, read: endpoint: mean survival time, dose: 200.0 mg/kg/injection, schedule: Q04DX003 (ip), vehicle: saline with Tween-80.
Setting [8] is: endpoint: mean survival time, dose: 400.0 mg/kg/injection, schedule: Q04DX003 (ip), vehicle: saline with Tween-80.

Molecules are shown by their SMILES. Where “and” joins values, the source holds several entries; their conditions need not be identical. Identical values can stand only once. Inconclusive results and toxic doses are left out.

Drawing on PubChem BioAssay AID256 (DTP/NCI, 2004), this text covers T/C for 17 compounds.

As to `CC(Oc1ccc(Cl)cc1)C(/C=N/N=C(N)N)=N/N=C(N)N` (configuration not stated), the T/C was 100 % of control (endpoint: mean survival time, dose: 1.56 mg/kg/injection, schedule: Q01DX009 (ip), vehicle: saline); 98 % of control (endpoint: mean survival time, dose: 3.13 mg/kg/injection, schedule: Q01DX009 (ip), vehicle: saline); 102 % of control (endpoint: mean survival time, dose: 6.25 mg/kg/injection, schedule: Q01DX009 (ip), vehicle: saline); 100 % of control (endpoint: mean survival time, dose: 12.5 mg/kg/injection, schedule: Q01DX009 (ip), vehicle: saline); 96 % of control and 101 % of control (endpoint: mean survival time, dose: 25.0 mg/kg/injection, schedule: Q01DX009 (ip), vehicle: saline).

Take `Cc1ccc([P+](=O)O)cc1Cl`: the T/C is 102 % of control under setting [1]; 97 % of control under setting [2]; 103 % of control (endpoint: mean survival time, dose: 400.0 mg/kg/injection, schedule: Q04DX003 (ip), vehicle: saline).

Take `COc1ccc(CC(N)C(=O)NC2C(CO)OC(n3cnc4c(N)ncnc43)C2O)cc1` (configuration not stated): the T/C was 100 % of control (endpoint: mean survival time, dose: 75.0 mg/kg/injection, schedule: Q01DX001 (ip), vehicle: saline); 95 % of control (endpoint: mean survival time, dose: 150.0 mg/kg/injection, schedule: Q01DX001 (ip), vehicle: saline); 100 % of control (endpoint: mean survival time, dose: 300.0 mg/kg/injection, schedule: Q01DX001 (ip), vehicle: saline).

With `CC(=O)Nc1ccccc1[N+](=O)[O-]`, the T/C by setting is: under setting [3], 103 % of control; under setting [4], 101 % of control; under setting [5], 103 % of control.

Turning to `CCOc1ccc(/C=C(/C#N)C(N)=O)cc1`, the T/C was 97 % of control (endpoint: mean survival time, dose: 50.0 mg/kg/injection, schedule: Q04DX003 (ip), vehicle: saline with Tween-80); 94 % of control under setting [6]; 92 % of control under setting [7].

For the compound `S=C(S)c1[nH]c(=S)[nH]c(=S)c1Cl`, the T/C reads like this: under setting [6], 96 % of control; under setting [7], 101 % of control; under setting [8], 87 % of control.

`Nc1nc(N)c2c(n1)NCN(Cc1ccc(Cl)c(Cl)c1)C2`: the T/C is, setting by setting: (endpoint: mean survival time, dose: 0.75 mg/kg/injection, schedule: Q01DX009 (ip), vehicle: water) 102 % of control; (endpoint: mean survival time, dose: 1.5 mg/kg/injection, schedule: Q01DX009 (ip), vehicle: water) 98 % of control; (endpoint: mean survival time, dose: 3.0 mg/kg/injection, schedule: Q01DX009 (ip), vehicle: water) 102 % of control; (endpoint: mean survival time, dose: 6.0 mg/kg/injection, schedule: Q01DX009 (ip), vehicle: water) 102 % of control; (endpoint: mean survival time, dose: 12.0 mg/kg/injection, schedule: Q01DX009 (ip), vehicle: water) 100 % of control; (endpoint: mean survival time, dose: 24.0 mg/kg/injection, schedule: Q01DX009 (ip), vehicle: water) 102 % of control. Also, the T/C (endpoint: mean survival time, dose: 50.0 mg/kg/injection, schedule: Q01DX009 (ip), vehicle: water) was 94 % of control.

Regarding `CCCCOC(=O)c1ccccn1`, the T/C is 101 % of control (endpoint: mean survival time, dose: 50.0 mg/kg/injection, schedule: Q01DX009 (ip), vehicle: saline with Tween-80); 95 % of control (endpoint: mean survival time, dose: 100.0 mg/kg/injection, schedule: Q01DX009 (ip), vehicle: saline with Tween-80); 98 % of control (endpoint: mean survival time, dose: 200.0 mg/kg/injection, schedule: Q01DX009 (ip), vehicle: saline with Tween-80).

As for `CN(C)C(=O)c1cccc(COc2ccc([N+](=O)[O-])cc2Cl)c1`, the T/C is, setting by setting: (endpoint: mean survival time, dose: 100.0 mg/kg/injection, schedule: Q01DX009 (ip), vehicle: saline sonified) 102 % of control; under setting [6], 101 % of control; (endpoint: mean survival time, dose: 200.0 mg/kg/injection, schedule: Q01DX009 (ip), vehicle: saline sonified) 98 % of control; under setting [7], 103 % of control; under setting [8], 95 % of control.

Regarding `O=c1nc(NCC23CC4CC(CC(C4)C2)C3)ccn1C1OC(CO)C(O)C1O` (configuration not stated), the T/C runs as follows: (endpoint: median survival time, dose: 12.5 mg/kg/injection, schedule: Q01DX005 (ip), vehicle: distilled water + Tween-80) 100 % of control; (endpoint: median survival time, dose: 25.0 mg/kg/injection, schedule: Q01DX005 (ip), vehicle: distilled water + Tween-80) 101 % of control; (endpoint: median survival time, dose: 50.0 mg/kg/injection, schedule: Q01DX005 (ip), vehicle: distilled water + Tween-80) 101 % of control; (endpoint: median survival time, dose: 100.0 mg/kg/injection, schedule: Q01DX005 (ip), vehicle: distilled water + Tween-80) 94 % of control; (endpoint: median survival time, dose: 200.0 mg/kg/injection, schedule: Q01DX005 (ip), vehicle: distilled water + Tween-80) 91 % of control.

On to `COc1cccc2c1C(=O)c1c(O)c3c(c(O)c1C2=O)C[C@@](O)(C(=O)CO)C[C@@H]3OC1CC(OC(C)=O)C(OC(C)=O)C(C)O1` (some centres not stated), for which the T/C is 115 % of control (endpoint: mean survival time, dose: 1.56 mg/kg/injection, schedule: Q01DX009 (ip), vehicle: distilled water + Tween-80); 122 % of control (endpoint: mean survival time, dose: 3.12 mg/kg/injection, schedule: Q01DX009 (ip), vehicle: distilled water + Tween-80); 167 % of control (endpoint: mean survival time, dose: 6.25 mg/kg/injection, schedule: Q01DX009 (ip), vehicle: distilled water + Tween-80); 153 % of control and 203 % of control (endpoint: mean survival time, dose: 12.5 mg/kg/injection, schedule: Q01DX009 (ip), vehicle: distilled water + Tween-80); 93 % of control and 100 % of control (endpoint: mean survival time, dose: 25.0 mg/kg/injection, schedule: Q01DX009 (ip), vehicle: distilled water + Tween-80); 113 % of control (endpoint: median survival time, dose: 1.56 mg/kg/injection, schedule: Q01DX009 (ip), vehicle: distilled water + Tween-80). Moreover, the T/C (endpoint: median survival time, dose: 6.25 mg/kg/injection, schedule: Q01DX009 (ip), vehicle: distilled water + Tween-80) is 158 % of control and 176 % of control; the T/C (endpoint: median survival time, dose: 12.5 mg/kg/injection, schedule: Q01DX009 (ip), vehicle: distilled water + Tween-80) was 226 % of control and 250 % of control; the T/C (endpoint: median survival time, dose: 25.0 mg/kg/injection, schedule: Q01DX009 (ip), vehicle: distilled water + Tween-80) is 120 % of control and 95 % of control.

Turning to `CN(C)C(=O)CCC(NC(=O)c1ccc(N(C)Cc2cnc3nc(N)nc(N)c3n2)cc1)C(=O)O` (configuration not stated), the T/C was 103 % of control (endpoint: mean survival time, dose: 1.0 mg/kg/injection, schedule: Q01DX009 (ip), vehicle: sodium bicarbonate) and 108 % of control (endpoint: mean survival time, dose: 10.0 mg/kg/injection, schedule: Q01DX009 (ip), vehicle: sodium bicarbonate).

Take `[Br][Pt+2][Br].[NH-]c1ccc(F)cc1.[NH-]c1ccc(F)cc1`: the T/C is, setting by setting: (endpoint: mean survival time, dose: 3.13 mg/kg/injection, schedule: Q04DX003 (ip), vehicle: distilled water + Tween-80) 101 % of control; (endpoint: mean survival time, dose: 6.25 mg/kg/injection, schedule: Q04DX003 (ip), vehicle: distilled water + Tween-80) 104 % of control; (endpoint: mean survival time, dose: 12.5 mg/kg/injection, schedule: Q04DX003 (ip), vehicle: distilled water + Tween-80) 104 % of control; (endpoint: mean survival time, dose: 25.0 mg/kg/injection, schedule: Q04DX003 (ip), vehicle: distilled water + Tween-80) 108 % of control; (endpoint: mean survival time, dose: 50.0 mg/kg/injection, schedule: Q04DX003 (ip), vehicle: distilled water + Tween-80) 110 % of control; (endpoint: mean survival time, dose: 100.0 mg/kg/injection, schedule: Q04DX003 (ip), vehicle: distilled water + Tween-80) 113 % of control.

As for `COC1=C(C)C(=O)c2c(c(COC(N)=O)c3n2CC2C3N2C)C1=O` (configuration not stated), the T/C (endpoint: mean survival time, dose: 2.25 mg/kg/injection, schedule: Q01DX001 (ip), vehicle: acetone) is 103 % of control; the T/C (endpoint: mean survival time, dose: 2.9 mg/kg/injection, schedule: Q01DX001 (ip), vehicle: acetone) was 102 % of control; the T/C (endpoint: mean survival time, dose: 4.5 mg/kg/injection, schedule: Q01DX001 (ip), vehicle: acetone) is 110 % of control; the T/C (endpoint: mean survival time, dose: 6.75 mg/kg/injection, schedule: Q01DX001 (ip), vehicle: acetone) is 118 % of control; the T/C (endpoint: mean survival time, dose: 6.75 mg/kg/injection, schedule: Q01DX001 (ip), vehicle: saline) was 112 % of control.

As for `CCOC(=O)c1cnc(N(C)C)nc1SC(=N)N`, the T/C was 102 % of control (endpoint: mean survival time, dose: 50.0 mg/kg/injection, schedule: Q01DX009 (ip), vehicle: saline); 118 % of control (endpoint: mean survival time, dose: 100.0 mg/kg/injection, schedule: Q01DX009 (ip), vehicle: saline); 106 % of control under setting [1]; 91 % of control under setting [2].

As to `CCOc1ccccc1C1N(C)CCCN1C`, the T/C (endpoint: mean survival time, dose: 6.25 mg/kg/injection, schedule: Q01DX009 (ip), vehicle: saline with Tween-80) is 105 % of control; the T/C (endpoint: mean survival time, dose: 12.5 mg/kg/injection, schedule: Q01DX009 (ip), vehicle: saline with Tween-80) is 100 % of control; the T/C (endpoint: mean survival time, dose: 25.0 mg/kg/injection, schedule: Q01DX009 (ip), vehicle: saline with Tween-80) is 110 % of control.

Regarding `CCC(=O)NC1CCCCC1`, the T/C under setting [3] is 95 % of control, the T/C under setting [4] was 101 % of control and the T/C under setting [5] is 102 % of control.
